# From patent US9938322B2, “β-hairpin peptidomimetics” (priority 2013, dated 2018)
# Where a SMILES comes first, the peptide text is derived from it. [ ]: non-standard residue; d: D form. Cha = N[C@@H](CC1CCCCC1)C(=O)O; Chg = N[C@H](C(=O)O)C1CCCCC1; Tle = CC(C)(C)[C@H](N)C(=O)O; dDab = NCC[C@@H](N)C(=O)O; Orn = NCCC[C@H](N)C(=O)O; Dab = NCC[C@H](N)C(=O)O; Nva = CCC[C@H](N)C(=O)O; Dap = NC[C@H](N)C(=O)O
# Test system: human red blood cells (hRBC)
# Experiment: Hemolysis of human red blood cells
# Format: cell-based
# Settings: red cells of human, 1 h, 100
# How it was run: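 Washed fresh human erythrocytes (20% v/v, about 0.9×10^9 cells/ml final) incubated with peptide at 100 μg/ml for 1 h at 37° C with shaking. Supernatant OD540 read; hemolysis expressed relative to 2.5% Triton X-100 (100%) and PBS with 0.001% acetic acid (0%).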
row,SMILES,Hemolysis at 100 μg/ml
1,CCC[C@@H]1NC(=O)[C@@H]2CCCN2C(=O)[C@H]2CCCN2C(=O)[C@H](CO)NC(=O)[C@H](C)NC(=O)[C@H](CC2CCCCC2)NC(=O)[C@H](CCN)NC(=O)[C@H](Cc2c[nH]c3ccccc23)NC(=O)[C@H](CCN)NC(=O)[C@@H](CCN)NC(=O)[C@H](CCCN)NC(=O)[C@H](CCN)NC(=O)[C@H](Cc2ccc(O)cc2)NC(=O)[C@H](CO)NC1=O [compound 93] (cyclo([Nva]SY[Dab][Orn][dDab][Dab]W[Dab][Cha]AS[dP]P)),5%
2,CC(C)C[C@@H]1NC(=O)[C@@H]2CCCN2C(=O)[C@H]2CCCN2C(=O)[C@H](CO)NC(=O)[C@H](C)NC(=O)[C@H](C2CCCCC2)NC(=O)[C@H](CCN)NC(=O)[C@H](Cc2c[nH]c3ccccc23)NC(=O)[C@H](CCN)NC(=O)[C@H](CCN)NC(=O)[C@H](CCCN)NC(=O)[C@H](CCN)NC(=O)[C@H](Cc2ccc(O)cc2)NC(=O)[C@H](CO)NC1=O [compound 94] (cyclo(LSY[Dab][Orn][Dab][Dab]W[Dab][Chg]AS[dP]P)),0%
3,CC(C)C[C@@H]1NC(=O)[C@@H]2CCCN2C(=O)[C@H]2CCCN2C(=O)[C@H](CO)NC(=O)[C@H](C)NC(=O)[C@H](C(C)(C)C)NC(=O)[C@H](CCN)NC(=O)[C@H](Cc2c[nH]c3ccccc23)NC(=O)[C@H](CCN)NC(=O)[C@@H](CCN)NC(=O)[C@H](CN)NC(=O)[C@H](CCN)NC(=O)[C@H](Cc2ccc(O)cc2)NC(=O)[C@H](CO)NC1=O [compound 95] (cyclo(LSY[Dab][Dap][dDab][Dab]W[Dab][Tle]AS[dP]P)),1%
4,CC(C)C[C@@H]1NC(=O)[C@@H]2CCCN2C(=O)[C@H]2CCCN2C(=O)[C@H](CO)NC(=O)[C@H](C)NC(=O)[C@H](C(C)(C)C)NC(=O)[C@H](CCN)NC(=O)[C@H](Cc2c[nH]c3ccccc23)NC(=O)[C@H](CCN)NC(=O)[C@@H](CCN)NC(=O)[C@H](CCN)NC(=O)[C@H](CCN)NC(=O)[C@H](Cc2ccc(O)cc2)NC(=O)[C@H](CO)NC1=O [compound 96] (cyclo(LSY[Dab][Dab][dDab][Dab]W[Dab][Tle]AS[dP]P)),1%
5,CC(C)C[C@@H]1NC(=O)[C@@H]2CCCN2C(=O)[C@H]2CCCN2C(=O)[C@H](CO)NC(=O)[C@H](C)NC(=O)[C@H](C(C)(C)C)NC(=O)[C@H](CCCNC(=N)N)NC(=O)[C@H](Cc2c[nH]c3ccccc23)NC(=O)[C@H](CCN)NC(=O)[C@@H](CCN)NC(=O)[C@H](CCCN)NC(=O)[C@H](CCN)NC(=O)[C@H](Cc2ccc(O)cc2)NC(=O)[C@H](CO)NC1=O [compound 97] (cyclo(LSY[Dab][Orn][dDab][Dab]WR[Tle]AS[dP]P)),1%
6,CC(C)C[C@@H]1NC(=O)[C@@H]2CCCN2C(=O)[C@H]2CCCN2C(=O)[C@H](CO)NC(=O)[C@H](C)NC(=O)[C@H](C(C)(C)C)NC(=O)[C@H](CCN)NC(=O)[C@H](Cc2c[nH]c3ccccc23)NC(=O)[C@H](CCN)NC(=O)[C@@H](CCN)NC(=O)[C@H](CCCNC(=N)N)NC(=O)[C@H](CCN)NC(=O)[C@H](Cc2ccc(O)cc2)NC(=O)[C@H](CO)NC1=O [compound 98] (cyclo(LSY[Dab]R[dDab][Dab]W[Dab][Tle]AS[dP]P)),1%
7,CC(C)C[C@@H]1NC(=O)[C@@H]2CCCN2C(=O)[C@H]2CCCN2C(=O)[C@H](CO)NC(=O)[C@H](C)NC(=O)[C@H](C(C)(C)C)NC(=O)[C@H](CCN)NC(=O)[C@H](Cc2c[nH]c3ccccc23)NC(=O)[C@H](CCCN)NC(=O)[C@@H](CCN)NC(=O)[C@H](CCCN)NC(=O)[C@H](CCN)NC(=O)[C@H](Cc2ccc(O)cc2)NC(=O)[C@H](CO)NC1=O [compound 99] (cyclo(LSY[Dab][Orn][dDab][Orn]W[Dab][Tle]AS[dP]P)),0%
8,CC(C)C[C@@H]1NC(=O)[C@@H]2CCCN2C(=O)[C@H]2CCCN2C(=O)[C@H](CO)NC(=O)[C@H](C)NC(=O)[C@H](C(C)(C)C)NC(=O)[C@H](CCCCN)NC(=O)[C@H](Cc2c[nH]c3ccccc23)NC(=O)[C@H](CCN)NC(=O)[C@@H](CCN)NC(=O)[C@H](CCCN)NC(=O)[C@H](CCN)NC(=O)[C@H](Cc2ccc(O)cc2)NC(=O)[C@H](CO)NC1=O [compound 100] (cyclo(LSY[Dab][Orn][dDab][Dab]WK[Tle]AS[dP]P)),1%
